# What was measured:
# [1] = molecular target: 5-HT1B receptor (Homo sapiens (Human), UniProt P28222); experiment: 5-HT1B receptor competition binding assay (SPA, [3H]-GR125743); settings: for Ki: membranes of CHO cells expressing 5-HT1B receptors, radioligand [3H]-GR125743 0.15-0.2 nM
# From the text: (§1) Assays that were used to measure affinity of the compounds of the present invention for 5-HT1A and 5-HT1B receptors are described in J. Recept Signal Transduct. Res. 22:483-495 (2002) and Naunyn-Schmiedeberg's Arch Pharmacol. 356:328-334 (1997) and incorporated by reference herein. These assays were be used with some modifications:
# (§2) For the binding assay stably transfected chinese hamster ovary (CHO) cell lines expressing 5-HT1A receptors or 5-HT1B receptors were harvested by centrifugation at 300×g for 10 min and resuspended in 10 mM Tris-HCl, 5 mM EDTA at pH 7.4. The cells were pooled, recentrifuged and resuspended before homogenisation using a Dounce homogeniser (“type B”). Cell membranes were centrifuged at 48 000×g for 10 min and then resuspended in harvesting buffer using an Ultra-Turrax T8 (IKA Labortechnik, Germany), aliquots were stored frozen in −70° C.
# Frozen membrane preparations were thawed, homogenized with an Ultra-Turrax and mixed with SPA beads (YSI coated WGA, GE Healthcare/Amersham, Buckinghamshire, UK) in assay buffer containing 50 mM Tris-Base, 4 mM MgCl2, 4 mM CaCl2 (only 5-HT1B), 1 mM EDTA, and adjusted to pH 7.4 with HCl. The beads/membrane solution, final concentration 100 pM receptors for 5-HT1A, 300 pM receptors for 5-HT1B and 0.5 mg SPA beads/well, was pre-incubated in room temperature with stirring for 30-60 min. […] Five (log interval, 10 μM to 1 nM, final concentration) or ten serial dilutions (½-log interval, 10 μM to 0.32 nM, final concentration) of compounds were prepared in DMSO from 10 mM stock solutions. The binding assays were performed in 384-well plates in a final volume of 90 μL/well with the following additions: 9 μL binding buffer; 1 μL compound/DMSO/nonspecific; 20 μL radioligand; and 60 μL beads/membrane mixture. Non-specific binding was defined by using 10 μM WAY100635 for 5-HT1A and 10 μM Methiothepin for 5-HT1B. The assay plates were incubated for 4 hours where after the plates are counted in a Wallac 1450 Microbeta Trilux counter (PerkinElmer LifeScience, US) or similar. Data from the experiments were analyzed using a four parameter logistic equation as follows: Y=Bottom+(Top-Bottom)/1+10^(LogEC50-X)nH.
# • Jerning E., Rosqvist S., Mohell N. (2002) NAD-299 antagonises 5-HT-stimulated and Spiperone-inhibited [^35S]GTPγS binding in cloned 5-HT1A receptors. J Recept Signal Transduct Res 22:483-495. • Doménech T., Beleta J., Palacios J. M. (1997) Characterization of human serotonin 1D and 1B receptors using [^3H]-GR-125743, a novel radiolabelled serotonin 5HT1D/1B receptor antagonist. Naunyn-Schmiedeberg's Arch Pharmacol 356:328-334.
# [2] = molecular target: 5-HT1A receptor (Homo sapiens (Human), UniProt P08908); experiment: 5-HT1A receptor competition binding assay (SPA, [3H]-8-OH-DPAT); settings: membranes of CHO cells expressing 5-HT1A receptors; radioligand [3H]-8-OH-DPAT 0.15-0.2 nM
# Sequence of 5-HT1A receptor (P08908 whole entry): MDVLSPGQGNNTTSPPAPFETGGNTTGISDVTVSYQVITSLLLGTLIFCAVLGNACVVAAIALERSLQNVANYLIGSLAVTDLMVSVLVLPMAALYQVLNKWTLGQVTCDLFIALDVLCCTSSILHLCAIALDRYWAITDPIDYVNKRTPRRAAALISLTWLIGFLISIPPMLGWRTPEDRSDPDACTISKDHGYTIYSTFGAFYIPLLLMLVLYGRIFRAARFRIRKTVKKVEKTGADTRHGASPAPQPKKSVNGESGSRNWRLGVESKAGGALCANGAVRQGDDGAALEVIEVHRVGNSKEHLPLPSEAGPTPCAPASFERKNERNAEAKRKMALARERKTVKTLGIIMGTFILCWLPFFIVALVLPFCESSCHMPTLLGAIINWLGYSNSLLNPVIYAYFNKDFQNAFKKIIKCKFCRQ
# From the text: as §1, §2
# Frozen membrane preparations were thawed, homogenized with an Ultra-Turrax and mixed with SPA beads (YSI coated WGA, GE Healthcare/Amersham, Buckinghamshire, UK) in assay buffer containing 50 mM Tris-Base, 4 mM MgCl2, 4 mM CaCl2 (only 5-HT1B), 1 mM EDTA, and adjusted to pH 7.4 with HCl. […] The binding assays were performed in 384-well plates in a final volume of 90 μL/well with the following additions: 9 μL binding buffer; 1 μL compound/DMSO/nonspecific; 20 μL radioligand; and 60 μL beads/membrane mixture. Non-specific binding was defined by using 10 μM WAY100635 for 5-HT1A and 10 μM Methiothepin for 5-HT1B. The assay plates were incubated for 4 hours where after the plates are counted in a Wallac 1450 Microbeta Trilux counter (PerkinElmer LifeScience, US) or similar. Data from the experiments were analyzed using a four parameter logistic equation as follows: Y=Bottom+(Top-Bottom)/1+10^(LogEC50-X)nH.
# Sequence of 5-HT1B receptor (P28222 whole entry): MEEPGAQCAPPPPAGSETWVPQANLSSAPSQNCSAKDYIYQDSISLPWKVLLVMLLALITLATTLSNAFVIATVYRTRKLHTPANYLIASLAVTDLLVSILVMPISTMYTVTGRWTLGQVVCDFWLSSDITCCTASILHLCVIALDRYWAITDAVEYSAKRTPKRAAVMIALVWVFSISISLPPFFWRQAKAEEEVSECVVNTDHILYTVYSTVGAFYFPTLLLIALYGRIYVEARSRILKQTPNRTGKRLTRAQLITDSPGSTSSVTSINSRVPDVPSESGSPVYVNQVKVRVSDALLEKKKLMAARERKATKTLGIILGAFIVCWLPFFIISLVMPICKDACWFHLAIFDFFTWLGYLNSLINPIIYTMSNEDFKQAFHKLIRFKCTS
Ki [1] [nM],Ki [2] [nM],"Kd ([1]; 5-HT1B receptor, Kd used in the calculation of Ki, read-out: Kd of radioligand, saturation binding studies) [nM]",Structure (SMILES)
9,0.59,,"CC(NC(=O)c1cc2cccc(N3CCN(CCc4ccccn4)CC3)c2o1)c1ccccn1 (stereo not shown) [Example 7, N-(1-(Pyridin-2-yl)ethyl)-7-(4-(2-(pyridin-2-yl)ethyl)piperazin-1-yl)benzofuran-2-carboxamide]"
35,2.3,,"O=C(NC1(c2ccccn2)CC1)c1cc2cccc(N3CCN(CCc4ccccn4)CC3)c2o1 [Example 27, N-(1-(Pyridin-2-yl)cyclopropyl)-7-(4-(2-(pyridin-2-yl)ethyl)piperazin-1-yl)benzofuran-2-carboxamide]"
5,0.23,,"CC(=O)N1CCc2cc(CCN3CCN(c4cc(F)cc5cc(C(=O)N(C)C)oc45)CC3)ccc21 [Example 51, 7-(4-(2-(1-Acetylindolin-5-yl)ethyl)piperazin-1-yl)-5-fluoro-N,N-dimethylbenzofuran-2-carboxamide]"
8.2,0.43,,"CN(C)C(=O)c1cc2cc(F)cc(N3CCN(CCc4ccccn4)CC3)c2o1 [Example 50, 5-Fluoro-N,N-dimethyl-7-(4-(2-(pyridin-2-yl)ethyl)piperazin-1-yl)benzofuran-2-carboxamide]"
3.3,2,,"CS(=O)(=O)Cc1ccc(CNC(=O)c2cc3cccc(N4CCN(CCc5ccccn5)CC4)c3o2)cc1 [Example 17, N-(4-(Methylsulfonylmethyl)benzyl)-7-(4-(2-(pyridin-2-yl)ethyl)piperazin-1-yl)benzofuran-2-carboxamide]"
1.8,0.2,,"CS(=O)(=O)c1ccc(CNC(=O)c2cc3cccc(N4CCN(CCc5ccccn5)CC4)c3o2)cc1 [Example 4, N-(4-(Methylsulfonyl)benzyl)-7-(4-(2-(pyridin-2-yl)ethyl)piperazin-1-yl)benzofuran-2-carboxamide]"
73,,,"CN(C)C(=O)c1cc2cccc(N3CCN(CCc4cc(C#N)ccn4)CC3)c2o1 [Example 41, 7-(4-(2-(4-Cyanopyridin-2-yl)ethyl)piperazin-1-yl)-N,N-dimethylbenzofuran-2-carboxamide]"
9.1,0.91,,"N#Cc1cccc(CNC(=O)c2cc3cccc(N4CCN(CCc5ccccn5)CC4)c3o2)c1 [Example 22, N-(3-Cyanobenzyl)-7-(4-(2-(pyridin-2-yl)ethyl)piperazin-1-yl)benzofuran-2-carboxamide]"
6.5,,,"O=C(NC1CC1)c1cc2cccc(N3CCN(CCc4ccccn4)CC3)c2o1 [Example 13, N-Cyclopropyl-7-(4-(2-(pyridin-2-yl)ethyl)piperazin-1-yl)benzofuran-2-carboxamide]"
44,2.1,,"Cc1ccc(C(C)NC(=O)c2cc3cccc(N4CCN(CCc5ccccn5)CC4)c3o2)cn1 (stereo not shown) [Example 33, N-(1-(6-Methylpyridin-3-yl)ethyl)-7-(4-(2-(pyridin-2-yl)ethyl)piperazin-1-yl)benzofuran-2-carboxamide]"
66,,,"COc1ccnc(CCN2CCN(c3cccc4cc(C(=O)N(C)C)oc34)CC2)c1 [Example 39, 7-(4-(2-(4-Methoxypyridin-2-yl)ethyl)piperazin-1-yl)-N,N-dimethylbenzofuran-2-carboxamide]"
82,,,"CC(=O)N1CCC(NC(=O)c2cc3cccc(N4CCN(CCc5ccccn5)CC4)c3o2)CC1 [Example 6, N-(1-Acetylpiperidin-4-yl)-7-(4-(2-(pyridin-2-yl)ethyl)piperazin-1-yl)benzofuran-2-carboxamide]"
,0.44,,"N#Cc1ccc(CNC(=O)c2cc3cccc(N4CCN(CCc5ccccn5)CC4)c3o2)cc1 [Example 9, N-(4-Cyanobenzyl)-7-(4-(2-(pyridin-2-yl)ethyl)piperazin-1-yl)benzofuran-2-carboxamide]"
14,,,"CC(=O)N1CCc2cc(CCN3CCN(c4cccc5cc(C(=O)N6CCC6)oc45)CC3)ccc21 [Example 49, 1-(5-(2-(4-(2-(Azetidine-1-carbonyl)benzofuran-7-yl)piperazin-1-yl)ethyl)indolin-1-yl)ethanone]"
,0.16,,"COc1cccnc1CCN1CCN(c2cccc3cc(C(=O)N(C)C)oc23)CC1 [Example 48, 7-(4-(2-(3-Methoxy-2-pyridyl)ethyl)piperazin-1-yl)-N,N-dimethylbenzofuran-2-carboxamide]"

# The remaining lines, values behind:
Structure (SMILES),Ki [1] [nM],Ki [2] [nM],"Kd ([1]; 5-HT1B receptor, Kd used in the calculation of Ki, read-out: Kd of radioligand, saturation binding studies) [nM]"
"COc1cccc(CNC(=O)c2cc3cccc(N4CCN(CCc5ccccn5)CC4)c3o2)c1 [Example 26, N-(3-Methoxybenzyl)-7-(4-(2-(pyridin-2-yl)ethyl)piperazin-1-yl)benzofuran-2-carboxamide]",2.3,0.91,
"Cn1cnc(CNC(=O)c2cc3cccc(N4CCN(CCc5ccccn5)CC4)c3o2)c1 [Example 5, N-((1-Methyl-1H-imidazol-4-yl)methyl)-7-(4-(2-(pyridin-2-yl)ethyl)piperazin-1-yl)benzofuran-2-carboxamide]",37,2.2,
"O=C(NC1CCN(c2ccccc2)CC1)c1cc2cccc(N3CCN(CCc4ccccn4)CC3)c2o1 [Example 3, N-(1-Phenylpiperidin-4-yl)-7-(4-(2-(pyridin-2-yl)ethyl)piperazin-1-yl)benzofuran-2-carboxamide]",0.52,0.14,
"Cc1ccc(CCN2CCN(c3cccc4cc(C(=O)N(C)C)oc34)CC2)nc1 [Example 40, N,N-dimethyl-7-(4-(2-(5-methylpyridin-2-yl)ethyl)piperazin-1-yl)benzofuran-2-carboxamide]",1.3,0.14,
"O=C(c1cc2cccc(N3CCN(CCc4ccccn4)CC3)c2o1)N1CCC1 [Example 15, Azetidin-1-yl(7-(4-(2-(pyridin-2-yl)ethyl)piperazin-1-yl)benzofuran-2-yl)methanone]",16,1.4,
"COc1ccc(NC(=O)c2ccc(-c3ccncc3)c(C)c2)cc1N1CCN(C)CC1 [[^3H]-GR125743, reference compound]",,,0.87
"O=C(NCc1ccccn1)c1cc2cccc(N3CCN(CCc4ccccn4)CC3)c2o1 [Example 1, 7-(4-(2-(Pyridin-2-yl)ethyl)piperazin-1-yl)-N-(pyridin-2-ylmethyl)benzofuran-2-carboxamide]",19,1.3,
"N#Cc1ccc(CNC(=O)c2cc3cccc(N4CCN(CCc5ccccn5)CC4)c3o2)cn1 [Example 20, N-((6-Cyanopyridin-3-yl)methyl)-7-(4-(2-(pyridin-2-yl)ethyl)piperazin-1-yl)benzofuran-2-carboxamide]",7.6,1.1,
"CN(C)C(=O)c1cc2cccc(N3CCN(CCc4ccccn4)CC3)c2o1 [Example 11, N,N-Dimethyl-7-(4-(2-(pyridin-2-yl)ethyl)piperazin-1-yl)benzofuran-2-carboxamide]",2.1,0.16,
"COc1ccc(CNC(=O)c2cc3cccc(N4CCN(CCc5ccccn5)CC4)c3o2)cc1 [Example 28, N-(4-Methoxybenzyl)-7-(4-(2-(pyridin-2-yl)ethyl)piperazin-1-yl)benzofuran-2-carboxamide]",1,0.85,
"Cn1cnc(CCNC(=O)c2cc3cccc(N4CCN(CCc5ccccn5)CC4)c3o2)c1 [Example 30, N-(2-(1-Methyl-1H-imidazol-4-yl)ethyl)-7-(4-(2-(pyridin-2-yl)ethyl)piperazin-1-yl)benzofuran-2-carboxamide]",17,,

# Source: patent publication US8859534B2, “2-carboxamide-7-piperazinyl-benzofuran derivatives” (AstraZeneca AB, priority 2009, dated 2014)
